Results published in ChEMBL document CHEMBL1201862, “PubChem BioAssay data set” (2004).
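Dose response: 5 concentrations. Exposure: 48 h. Format: 96-well plates. Endpoint: linear interpolation; highest concentration if not reached. GI50 is the concentration that inhibits growth by half.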 The source made the active and inactive calls. No stated cut-off is given here; in the data, active = GI50 up to about 1.1 µM and inactive = higher.

Experiments:
Test in all cases: NCI-60 cell line screen, 48 h
A498 = system: A498
COLO 205 = system: COLO 205
EKVX = system: EKVX
HCT-15 = system: HCT-15
IGROV-1 = system: IGROV-1
KM12 = system: KM12
MCF7 = system: MCF7
MOLT-4 = system: MOLT-4
NCI-H460 = system: NCI-H460
OVCAR-4 = system: OVCAR-4
OVCAR-5 = system: OVCAR-5
PC-3 = system: PC-3
RPMI-8226 = system: RPMI-8226
SF-295 = system: SF-295
SF-539 = system: SF-539
SR = system: SR
UACC-257 = system: UACC-257
UACC-62 = system: UACC-62
UO-31 = system: UO-31
CAKI-1 = system: CAKI-1

SMILES | GI50 (A498) | GI50 (COLO 205) | GI50 (EKVX) | GI50 (HCT-15) [µM] | GI50 (IGROV-1) | GI50 (KM12) | GI50 (MCF7) | GI50 (MOLT-4) | GI50 (NCI-H460) | GI50 (OVCAR-4) | GI50 (OVCAR-5) | GI50 (PC-3) | GI50 (RPMI-8226) | GI50 (SF-295) | GI50 (SF-539) | GI50 (SR) | GI50 (UACC-257) | GI50 (UACC-62) | GI50 (UO-31) | GI50 (CAKI-1)
COc1cc(C2c3cccc4cccc(c34)C3CCC(=O)N32)cc(OC)c1O (centres undefined) | > 50 µM (inactive) | > 50 µM (inactive) | > 50 µM (inactive) | > 50 | > 50 µM (inactive) | > 50 µM (inactive) | > 50 µM (inactive) | > 50 µM (inactive) | > 50 µM (inactive) | > 50 µM (inactive) | > 50 µM (inactive) | > 50 µM (inactive) | > 50 µM (inactive) | > 50 µM (inactive) | > 50 µM (inactive) | > 50 µM (inactive) | > 50 µM (inactive) | > 50 µM (inactive) | > 50 µM (inactive) | –
CC1(C)OCC([C@H]2O[C@@H](CC(=S)NCCCCCCCCCCCCNC(=S)C[C@H]3O[C@@H](C4COC(C)(C)O4)[C@H]4OC(C)(C)O[C@H]43)[C@H]3OC(C)(C)O[C@H]32)O1 (some centres undefined) | 11.9 µM (inactive) | – | 49.9 µM (inactive) | 73.1 | > 100 µM (inactive) | 48.6 µM (inactive) | 24.4 µM (inactive) | 15.8 µM (inactive) | 25.6 µM (inactive) | 43.3 µM (inactive) | > 100 µM (inactive) | 25.5 µM (inactive) | 15.7 µM (inactive) | 31.6 µM (inactive) | 57.9 µM (inactive) | 34.8 µM (inactive) | 42.5 µM (inactive) | – | 19 µM (inactive) | 17.5 µM (inactive)
Nc1ccc(/N=N/c2ccccc2)cc1 | 46.8 µM (inactive) | 46.1 µM (inactive) | 28.2 µM (inactive) | 41.2 | 29.4 µM (inactive) | 23.8 µM (inactive) | 30.5 µM (inactive) | 11.7 µM (inactive) | 29.1 µM (inactive) | > 100 µM (inactive) | > 100 µM (inactive) | 56.8 µM (inactive) | – | 22.2 µM (inactive) | 35.2 µM (inactive) | 19.3 µM (inactive) | > 100 µM (inactive) | 27.4 µM (inactive) | 13.2 µM (inactive) | 93.1 µM (inactive)
CCCCCCCCCCC[N+]1(Cc2ccccc2)CC2CCN(Cc3ccccc3)CC2C1 (centres undefined) | 1.5 µM (inactive) | 1.01 µM (active) | 0.323 µM (active) | 1.52 | 0.429 µM (active) | 0.247 µM (active) | 0.447 µM (active) | 0.199 µM (active) | 1.29 µM (inactive) | 0.679 µM (active) | 1.55 µM (inactive) | 0.234 µM (active) | 0.101 µM (active) | 1.09 µM (active) | 1.15 µM (inactive) | 0.0546 µM (active) | 0.288 µM (active) | – | 1.3 µM (inactive) | 1.4 µM (inactive)
Cn1c(-c2cccs2)cc(-c2ccsc2)c1-c1cccs1 | > 100 µM (inactive) | 17.3 µM (inactive) | 10.2 µM (inactive) | 88.9 | > 100 µM (inactive) | > 100 µM (inactive) | 5.97 µM (inactive) | 55.7 µM (inactive) | 48.1 µM (inactive) | > 100 µM (inactive) | > 100 µM (inactive) | > 100 µM (inactive) | – | > 100 µM (inactive) | > 100 µM (inactive) | > 100 µM (inactive) | 52.2 µM (inactive) | 42.6 µM (inactive) | > 100 µM (inactive) | > 100 µM (inactive)
O=c1[nH]c(=O)n(COCCOCc2ccccc2)cc1Nc1ccccc1 | > 100 µM (inactive) | > 100 µM (inactive) | > 100 µM (inactive) | > 100 | > 100 µM (inactive) | > 100 µM (inactive) | > 100 µM (inactive) | 59.4 µM (inactive) | > 100 µM (inactive) | > 100 µM (inactive) | > 100 µM (inactive) | > 100 µM (inactive) | – | > 100 µM (inactive) | > 100 µM (inactive) | > 100 µM (inactive) | > 100 µM (inactive) | > 100 µM (inactive) | > 100 µM (inactive) | > 100 µM (inactive)
Cn1c(S)nc(C(N)=O)c1N | > 100 µM (inactive) | > 100 µM (inactive) | > 100 µM (inactive) | > 100 | > 100 µM (inactive) | > 100 µM (inactive) | > 100 µM (inactive) | > 100 µM (inactive) | > 100 µM (inactive) | > 100 µM (inactive) | > 100 µM (inactive) | > 100 µM (inactive) | > 100 µM (inactive) | > 100 µM (inactive) | > 100 µM (inactive) | > 100 µM (inactive) | – | > 100 µM (inactive) | > 100 µM (inactive) | –
C[N+]1(C)CC=C(N2CCOCC2)CC1 | > 10 µM (inactive) | > 10 µM (inactive) | > 10 µM (inactive) | > 10 | > 10 µM (inactive) | > 10 µM (inactive) | > 10 µM (inactive) | > 10 µM (inactive) | > 10 µM (inactive) | > 10 µM (inactive) | – | > 10 µM (inactive) | > 10 µM (inactive) | > 10 µM (inactive) | > 10 µM (inactive) | > 10 µM (inactive) | > 10 µM (inactive) | > 10 µM (inactive) | > 10 µM (inactive) | > 10 µM (inactive)
Cc1cn(C2CC(OC(c3ccccc3)(c3ccccc3)c3ccccc3)C(COC(c3ccccc3)(c3ccccc3)c3ccccc3)O2)c(=O)[nH]c1=O (centres undefined) | 25.4 µM (inactive) | > 100 µM (inactive) | 45.6 µM (inactive) | 59.2 | > 100 µM (inactive) | 31.3 µM (inactive) | 19 µM (inactive) | 29.4 µM (inactive) | 57.8 µM (inactive) | > 100 µM (inactive) | 53.1 µM (inactive) | 16 µM (inactive) | – | > 100 µM (inactive) | > 100 µM (inactive) | > 100 µM (inactive) | > 100 µM (inactive) | > 100 µM (inactive) | 45.6 µM (inactive) | > 100 µM (inactive)
CCN1/C(=C/C#C/C(C)=C\c2sc3ccc(Cl)cc3[n+]2CC)Sc2ccc(Cl)cc21 | – | 1.66 µM (inactive) | 4.25 µM (inactive) | 4.61 | 4 µM (inactive) | 3.1 µM (inactive) | 3.73 µM (inactive) | – | 3.02 µM (inactive) | 6.53 µM (inactive) | 7.94 µM (inactive) | 2.33 µM (inactive) | 1.67 µM (inactive) | 3.4 µM (inactive) | 3.57 µM (inactive) | 0.668 µM (active) | 3.34 µM (inactive) | 3.32 µM (inactive) | 3.85 µM (inactive) | 2.82 µM (inactive)
S=C(Nc1cccc(Cl)c1)Nc1ccccn1 | – | > 100 µM (inactive) | 82 µM (inactive) | > 100 | > 100 µM (inactive) | 13.5 µM (inactive) | > 100 µM (inactive) | > 100 µM (inactive) | > 100 µM (inactive) | > 100 µM (inactive) | > 100 µM (inactive) | > 100 µM (inactive) | > 100 µM (inactive) | > 100 µM (inactive) | > 100 µM (inactive) | > 100 µM (inactive) | > 100 µM (inactive) | > 100 µM (inactive) | > 100 µM (inactive) | > 100 µM (inactive)
CC1CC(=O)N(N(C)C)C2(C#N)C(=O)N=C(N)C12C#N (centres undefined) | > 100 µM (inactive) | 38.7 µM (inactive) | > 100 µM (inactive) | > 100 | > 100 µM (inactive) | > 100 µM (inactive) | > 100 µM (inactive) | 36.7 µM (inactive) | – | > 100 µM (inactive) | > 100 µM (inactive) | > 100 µM (inactive) | 35.4 µM (inactive) | > 100 µM (inactive) | > 100 µM (inactive) | > 100 µM (inactive) | > 100 µM (inactive) | 35.8 µM (inactive) | > 100 µM (inactive) | 23.4 µM (inactive)
Cc1nc(C)c(N2CCN(CN)CC2)c(O)n1 | > 100 µM (inactive) | > 100 µM (inactive) | > 100 µM (inactive) | > 100 | > 100 µM (inactive) | > 100 µM (inactive) | > 100 µM (inactive) | > 100 µM (inactive) | > 100 µM (inactive) | > 100 µM (inactive) | – | > 100 µM (inactive) | > 100 µM (inactive) | > 100 µM (inactive) | > 100 µM (inactive) | > 100 µM (inactive) | > 100 µM (inactive) | > 100 µM (inactive) | > 100 µM (inactive) | 8.15 µM (inactive)
Cc1c2c(nc3ccccc13)C(=O)c1cccnc1C2=O | – | 17.1 µM (inactive) | 20 µM (inactive) | 10.9 | 17.8 µM (inactive) | 14.9 µM (inactive) | 4.89 µM (inactive) | 9.71 µM (inactive) | 1.96 µM (inactive) | 56.2 µM (inactive) | 60.4 µM (inactive) | 24.3 µM (inactive) | 17 µM (inactive) | 12.4 µM (inactive) | 5.41 µM (inactive) | 6.5 µM (inactive) | 6.97 µM (inactive) | 3.15 µM (inactive) | 15.2 µM (inactive) | –
COC(=O)/C(=C\Nc1cccc(C)n1)S(=O)(=O)c1ccc(C)cc1 | – | 22.2 µM (inactive) | – | 45.3 | > 100 µM (inactive) | 35.5 µM (inactive) | 68.2 µM (inactive) | 28.6 µM (inactive) | 61.7 µM (inactive) | 93.5 µM (inactive) | > 100 µM (inactive) | 38.8 µM (inactive) | > 100 µM (inactive) | > 100 µM (inactive) | 52.4 µM (inactive) | 61.2 µM (inactive) | 69.2 µM (inactive) | 31.5 µM (inactive) | 36.4 µM (inactive) | –
